tested on: LTB4 biosynthesis in human polymorphonuclear leukocytes (PMNs); experiment: Inhibition of LTB4 biosynthesis in human polymorphonuclear leukocytes (PMNs); format: cell-based; settings: Leukocyte; Table 1, Esters; LTB4, A23187-stimulated human PMNs; values with < (footnote d): greater than 50% (504 [sic]) inhibition at this concentration, IC50 not characterized further
Description: Inhibition of LTB4, biosynthesis in human polymorphonuclear leukocytes (PMNs)
The inhibition of leukotriene biosynthesis is measured by determining whether and to what extent test compounds can inhibit LTB4 production from endogenous arachidonic acid in human peripheral blood leukocytes.
To 48-well tissue culture plates was added a solution of the test compound followed by addition of human polymorphonuclear leukocytes isolated from peripheral blood at a density of 1.5×10^6 cells/well. Culture plates were preincubated for fifteen minutes with shaking at 28° C. Cells were stimulated with calcium ionophore A23187 at a final concentration of 2.5 μM for an additional ten minutes. The reaction was terminated by the addition of an EGTA solution (10 mM final concentration)followed by centrifugation at 1500 rpm at 10° C. Supernatants were stored at -70° C. LTB4 levels were determined by RIA using a commercially available kit. Nonlinear regression analysis was used to calculate. IC50 values.
The following tables show % inhibition of LTB4 biosynthesis by compounds of the invention at test concentrations indicated, with the determined IC50 shown in μM.

IC50 | SMILES
400 nM | CCOC(=O)C(Cc1ccccc1)Nc1nc2ccccc2s1 (racemic) [Compound 4, DL-N-(Benzothiazol-2-yl)phenylalanine ethyl ester]
330 nM | CCOC(=O)C(Cc1ccc(Cl)cc1)Nc1nc2ccc(C(C)C)cc2s1 (racemic) [Compound 7, DL-N-(6-Isopropylbenzothiazol-2-yl)-4-chlorophenylalanine ethyl ester]
200 nM | CCOC(=O)C(Cc1ccc(Cl)cc1)Nc1nc2ccccc2s1 (stereo not drawn) [Compound 1]
330 nM | CCOC(=O)C(Cc1ccc(F)cc1)Nc1nc2ccccc2s1 (stereo not drawn) [Compound 2]
150 nM | CCOC(=O)C(Cc1ccc(Br)cc1)Nc1nc2ccccc2s1 (stereo not drawn) [Compound 3]
250 nM | CCOC(=O)[C@H](Cc1ccccc1)Nc1nc2ccc(C(C)C)cc2s1 [Compound 6]
140 nM | COC(=O)[C@H](Cc1ccccc1)Nc1nc2ccc(C(C)C)cc2s1 [Compound 8]
230 nM | CCOC(=O)C(Cc1ccc(Cl)cc1)Nc1nc2ccc(OC)cc2s1 (stereo not drawn) [Compound 9]
650 nM | COC(=O)[C@@H](Cc1ccccc1)Nc1nc2ccc(C(C)C)cc2s1 [Compound 10]
170 nM | CCCCc1ccc2nc(NC(Cc3ccc(Cl)cc3)C(=O)OCC)sc2c1 (stereo not drawn) [Compound 11]
240 nM | CCOC(=O)[C@H](Cc1ccccc1)Nc1nc2ccc(CC)cc2s1 [Compound 12]
730 nM | CC(C)(C)OC(=O)[C@H](Cc1ccccc1)Nc1nc2ccccc2s1 [Compound 13]
9 nM | CCOC(=O)[C@H](Cc1ccccc1)Nc1nc2cc(CC)ccc2s1 [Compound 14]
27 nM | CCOC(=O)[C@H](CC1CCCCC1)Nc1nc2cc(CC)ccc2s1 [Compound 15]
6 nM | CCOC(=O)[C@H](CC1CCCCC1)Nc1nc2ccccc2s1 [Compound 16]
150 nM | CCOC(=O)[C@H](Cc1ccccc1)Nc1nc2ccccc2o1 [Compound 17]
1500 nM | CCOC(=O)[C@@H](Cc1ccccc1)Nc1nc2ccccc2o1 [Compound 18]
0.52 nM | CCOC(=O)[C@H](Cc1ccccc1)Nc1nc2cc(C(C)C)ccc2o1 [Compound 19]
220 nM | CCOC(=O)[C@H](Cc1ccccc1)Nc1nc2ccc(C(C)C)cc2o1 [Compound 20]
6.4 nM | COC(=O)[C@H](CC1CCCCC1)Nc1nc2ccccc2o1 [Compound 21]
100 nM | COC(=O)[C@@H](CC1CCCCC1)Nc1nc2ccccc2o1 [Compound 22]
1 nM | COC(=O)[C@H](CC1CCCCC1)Nc1nc2cc(C(C)C)ccc2o1 [Compound 23]
1.7 nM | COC(=O)[C@H](CC1CCCCC1)Nc1nc2cc(C)ccc2o1 [Compound 24]
< 300 nM | Cc1ccc2oc(N[C@@H](CC3CCCCC3)C(=O)OC(C)(C)C)nc2c1 [Compound 25]
16 nM | COC(=O)[C@@H](CC1CCCCC1)Nc1nc2cc(C)ccc2o1 [Compound 26]

same assay, conditions: Table 4, Pyridyl; values with <: see footnote d, Table 1

IC50 | SMILES
1.3 nM | Cc1ccc2oc(NC(CC3CCCCC3)c3ccccn3)nc2c1 (single isomer, unassigned) [Compound 87]
45 nM | Cc1ccc2oc(NC(CC3CCCCC3)c3ccccn3)nc2c1 (single isomer, unassigned) [Compound 88]
16 nM | Cc1ccc2oc(NC(CC3CCCCC3)c3cccnc3)nc2c1 (single isomer, unassigned) [Compound 89]
< 1000 nM | Cc1ccc2oc(NC(CC3CCCCC3)c3cccnc3)nc2c1 (single isomer, unassigned) [Compound 90]
10 nM | Fc1ccc(CC(Nc2nc3cc(Cl)ccc3o2)c2ccccn2)cc1 (single isomer, unassigned) [Compound 118]
320 nM | Fc1ccc(CC(Nc2nc3cc(Cl)ccc3o2)c2ccccn2)cc1 (single isomer, unassigned) [Compound 119]

same assay, conditions: Table 10, Oxazolopyridines; values with <: see footnote d, Table 1

IC50 | SMILES
15 nM | Cc1ccc2oc(NC(CC3CCCCC3)c3ccccn3)nc2n1 (single isomer, unassigned) [Compound 166]
170 nM | Cc1ccc2oc(NC(CC3CCCCC3)c3ccccn3)nc2n1 (single isomer, unassigned) [Compound 167]

— patent US5552421A, “Leukotriene biosynthesis inhibitors” (Boehringer Ingelheim Pharmaceuticals, Inc., priority 1995, dated 1996)
